Test results: patent US20120115878A1, “SALT(S) OF 7-CYCLOPENTYL-2-(5-PIPERAZIN-1-YL-PYRIDIN-2-YLAMINO)-7H-PYRROLO[2,3-D]PYRIMIDINE-6-CARBOXYLIC ACID DIMETHYLAMIDE AND PROCESSES OF MAKING THEREOF” (priority 2010, published 2012)

Legend:
[1] = Physical form characterization (XRPD, DSC, TGA) after DVS exposure to 90% RH; format: physicochemical
[2] = Dynamic Vapor Sorption (DVS) isotherm, 0-80-0% RH cycle; format: physicochemical; conditions: for Change In Mass (%) Desorption / Change In Mass (%) Hysteresis: 0-80-0% RH cycle, Cycle 1
[3] = Physical form characterization (XRPD) after DVS exposure to 80% RH
[4] = Dynamic Vapor Sorption (DVS) isotherm, 0-90-0% RH cycle, two cycles; format: physicochemical

Compound: CN(C)C(=O)c1cc2cnc(Nc3ccc(N4CCNCC4)cn3)nc2n1C1CCCC1.O=C(O)CCC(=O)O [Compound of Formula (II), 7-Cyclopentyl-N,N-dimethyl-2-(5-(piperazin-1-yl)pyridin-2-ylamino)-7H-pyrrolo[2,3-d]pyrimidine-6-carboxamide succinate]
- physical form upon exposure to 90% RH ([1]; XRPD, DSC, TGA after DVS 0-90-0% RH): change in physical form
- weight loss at endothermic transition ([1]; around 100° C., after exposure to 90% RH): 3%
- converted from the non-hydrate form to hydrate form ([1]; at 90% RH): about 7.35%
- Change In Mass (%) Desorption ([2]; target RH 0.0%): 0.0434%
- Change In Mass (%) Desorption ([2]; target RH 10.0%): 0.2958%
- Change In Mass (%) Hysteresis ([2]; target RH 10.0%): 0.0871%
- Change In Mass (%) Desorption ([2]; target RH 20.0%): 0.3436%
- Change In Mass (%) Hysteresis ([2]; target RH 20.0%): 0.0708%
- Change In Mass (%) Desorption ([2]; target RH 30.0%): 0.3806%
- Change In Mass (%) Desorption ([2]; target RH 40.0%): 0.4037%
- Change In Mass (%) Hysteresis ([2]; target RH 40.0%): 0.0133%
- Change In Mass (%) Desorption ([2]; target RH 50.0%): 0.4311%
- Change In Mass (%) Hysteresis ([2]; target RH 50.0%): 0.0074%
- Change In Mass (%) Desorption ([2]; target RH 60.0%): 0.4614%
- Change In Mass (%) Hysteresis ([2]; target RH 60.0%): 0.0140%
- Change In Mass (%) Desorption ([2]; target RH 70.0%): 0.4952%
- Change In Mass (%) Hysteresis ([2]; target RH 70.0%): 0.0159%
- Change In Mass (%) Desorption ([2]; target RH 80.0%): 0.5200%
- moisture absorbed ([2]; at 80% RH (0 to 80 to 0% RH)): up to 0.5%
- hygroscopic behavior ([2]; printed 'at 80° C.' (0 to 80 to 0% RH cycle)): nearly non-hygroscopic behavior
- physical form upon exposure to 80% RH ([3]; XRPD after DVS 0-80-0% RH): stability of the physical form
- converted from the non-hydrate form to hydrate form ([3]; at 80% RH): about 0.52%
- moisture absorbed ([4]; at 90% RH in each cycle (0 to 90 to 0% RH)): up to 2%
- hygroscopic behavior ([4]; at high humidity conditions (90% RH)): slight hygroscopic behavior

Compound: CN(C)C(=O)c1cc2cnc(Nc3ccc(N4CCNCC4)cn3)nc2n1C1CCCC1.O=C(O)CCC(=O)O [non-hydrate form, succinate salt of 7-Cyclopentyl-2-(5-piperazin-1-yl-pyridin-2-ylamino)-7H-pyrrolo[2,3-d]pyrimidine-6-carboxylic acid dimethylamide]
- hygroscopicity ([2]; general statement): non-hygroscopicity
- stability ([3]; general statement): good stability
